Columns and labels:
Mus musculus = assay: Reduction of atherosclerotic lesion of thoracic aorta in LDLr knockout C57BL/6 mouse at 10 mg/kg/day, po after 8 weeks relative to control; assay type: functional; parameters: scale not given: the % may be the effect or the level left
[1] = target: T1, Oxysterols receptor LXR-beta (Homo sapiens, UniProt P55055)
T1 sequence (P55055 whole entry): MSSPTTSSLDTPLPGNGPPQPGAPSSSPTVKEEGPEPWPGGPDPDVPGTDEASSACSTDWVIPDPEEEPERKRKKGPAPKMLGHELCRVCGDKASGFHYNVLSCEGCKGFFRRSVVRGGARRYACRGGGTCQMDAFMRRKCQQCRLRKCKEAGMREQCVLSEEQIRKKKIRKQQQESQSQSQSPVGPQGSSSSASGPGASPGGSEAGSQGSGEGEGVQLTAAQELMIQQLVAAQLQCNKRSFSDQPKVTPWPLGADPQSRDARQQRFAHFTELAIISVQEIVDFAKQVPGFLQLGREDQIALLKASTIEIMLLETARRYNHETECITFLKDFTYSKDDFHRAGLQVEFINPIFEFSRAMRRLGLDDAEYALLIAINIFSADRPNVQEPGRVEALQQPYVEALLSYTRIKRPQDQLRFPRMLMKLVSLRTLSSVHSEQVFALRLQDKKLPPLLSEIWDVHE

[2] = target: T2, Oxysterols receptor LXR-alpha (Homo sapiens, UniProt Q13133)
T2 sequence (Q13133 whole entry): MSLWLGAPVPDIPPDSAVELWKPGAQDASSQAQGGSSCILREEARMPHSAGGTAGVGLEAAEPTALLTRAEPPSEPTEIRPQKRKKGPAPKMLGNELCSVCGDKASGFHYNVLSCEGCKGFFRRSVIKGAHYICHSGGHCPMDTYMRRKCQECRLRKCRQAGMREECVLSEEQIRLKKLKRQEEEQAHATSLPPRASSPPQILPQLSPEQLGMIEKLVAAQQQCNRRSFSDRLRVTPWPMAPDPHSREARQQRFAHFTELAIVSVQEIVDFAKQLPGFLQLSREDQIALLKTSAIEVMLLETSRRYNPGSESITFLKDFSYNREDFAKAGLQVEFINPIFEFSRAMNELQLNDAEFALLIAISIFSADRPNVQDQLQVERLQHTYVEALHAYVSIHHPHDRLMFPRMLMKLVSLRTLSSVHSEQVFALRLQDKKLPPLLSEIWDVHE

[3] = target: T1, Oxysterols receptor LXR-beta; remark: listed apart in the source
[4] = target: T1, Oxysterols receptor LXR-beta; assay: Agonist activity at human LXR beta expressed in Huh7 cells by GAL4 transactivation assay; assay type: functional, cell-based, Huh-7
[5] = target: T3, Peroxisome proliferator-activated receptor gamma (Homo sapiens, UniProt P37231)
T3 sequence (P37231 whole entry): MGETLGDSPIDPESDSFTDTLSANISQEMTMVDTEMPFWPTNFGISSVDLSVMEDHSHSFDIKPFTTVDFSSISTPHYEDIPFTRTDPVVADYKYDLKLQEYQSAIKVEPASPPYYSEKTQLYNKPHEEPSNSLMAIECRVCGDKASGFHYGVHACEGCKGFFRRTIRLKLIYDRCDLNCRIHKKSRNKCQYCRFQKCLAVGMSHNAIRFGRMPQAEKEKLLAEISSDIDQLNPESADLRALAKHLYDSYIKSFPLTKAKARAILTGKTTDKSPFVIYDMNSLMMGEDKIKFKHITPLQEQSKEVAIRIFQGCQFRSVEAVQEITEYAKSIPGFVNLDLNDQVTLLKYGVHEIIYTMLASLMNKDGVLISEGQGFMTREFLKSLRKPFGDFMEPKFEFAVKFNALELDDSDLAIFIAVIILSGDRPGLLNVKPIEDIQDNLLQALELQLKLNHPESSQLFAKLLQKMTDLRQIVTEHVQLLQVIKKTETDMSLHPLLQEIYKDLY

Huh-7 [6] = assay: Induction of SREBP1c expression in Huh7 cell line; assay type: functional, cell-based; settings: Homo sapiens
[7] = Cmax in C57 mouse at 10 mg/kg, po; assay type: ADME, organism-based; parameters: dose 10 mg/kg, route oral; settings: in vivo
[8] = target: T4, Peroxisome proliferator-activated receptor delta (Homo sapiens, UniProt Q03181); assay: Agonist activity at human PPAR delta by GAL4 transactivation assay; assay type: functional
T4 sequence (Q03181 whole entry): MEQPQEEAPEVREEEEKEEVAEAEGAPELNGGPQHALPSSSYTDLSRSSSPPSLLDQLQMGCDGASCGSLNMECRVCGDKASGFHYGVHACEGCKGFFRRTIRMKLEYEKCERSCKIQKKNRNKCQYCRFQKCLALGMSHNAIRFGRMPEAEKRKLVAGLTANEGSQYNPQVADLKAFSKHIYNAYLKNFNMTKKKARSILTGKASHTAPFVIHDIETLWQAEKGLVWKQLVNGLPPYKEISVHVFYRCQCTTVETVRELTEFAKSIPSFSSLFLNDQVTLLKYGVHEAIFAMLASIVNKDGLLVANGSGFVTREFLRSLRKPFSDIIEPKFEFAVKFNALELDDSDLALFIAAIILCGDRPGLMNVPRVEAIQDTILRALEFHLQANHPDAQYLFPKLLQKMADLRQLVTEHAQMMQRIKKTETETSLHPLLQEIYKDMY

[9] = AUC (0-infinity) in C57 mouse at 10 mg/kg, po; assay type: ADME, organism-based; parameters: time infinity, dose 10 mg/kg, route oral; settings: plasma
[10] = target: T2, Oxysterols receptor LXR-alpha; assay: Agonist activity at human LXR alpha expressed in Huh7 cells by GAL4 transactivation assay; assay type: functional, cell-based, Huh-7
Huh-7 [11] = assay: Induction of SREBP1c expression in Huh7 cell line relative to TO901317; assay type: functional, Homo sapiens
THP-1 [12] = assay: Induction of ABCA1 expression in THP1 cell line relative to TO901317; assay type: functional, Homo sapiens
THP-1 [13] = assay: Induction of ABCA1 expression in THP1 cell line; assay type: functional, cell-based; settings: Homo sapiens
[14] = target: T5, Peroxisome proliferator-activated receptor alpha (Homo sapiens, UniProt Q07869); assay: Agonist activity at human PPAR alpha by GAL4 transactivation assay; assay type: functional
T5 sequence (Q07869 whole entry): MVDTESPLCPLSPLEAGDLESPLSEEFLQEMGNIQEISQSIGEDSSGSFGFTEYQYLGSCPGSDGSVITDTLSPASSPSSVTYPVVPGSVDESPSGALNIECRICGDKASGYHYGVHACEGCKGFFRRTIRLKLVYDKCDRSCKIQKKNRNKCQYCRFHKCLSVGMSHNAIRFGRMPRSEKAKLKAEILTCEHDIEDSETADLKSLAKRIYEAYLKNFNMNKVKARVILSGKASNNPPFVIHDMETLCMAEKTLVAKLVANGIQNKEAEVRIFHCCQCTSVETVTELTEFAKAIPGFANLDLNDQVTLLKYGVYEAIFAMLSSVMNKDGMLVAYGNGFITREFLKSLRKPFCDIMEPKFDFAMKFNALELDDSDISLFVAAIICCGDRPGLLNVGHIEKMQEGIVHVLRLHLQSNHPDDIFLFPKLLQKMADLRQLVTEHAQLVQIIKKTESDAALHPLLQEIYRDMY

THP-1 [15] = assay: Stimulation of cholesterol efflux in THP1 cell line; assay type: functional, cell-based; settings: Homo sapiens
[16] = Bioavailability in C57 mouse at 10 mg/kg, po; assay type: ADME, organism-based; settings: in vivo
[17] = Tmax in C57 mouse at 10 mg/kg, po; assay type: ADME, organism-based; parameters: dose 10 mg/kg, route oral; settings: in vivo
[18] = Terminal half life in C57 mouse at 10 mg/kg, po; assay type: ADME, organism-based; parameters: dose 10 mg/kg, route oral; settings: in vivo, read-out: beta t1/2 (converted)
[19] = Half life in human liver microsomes at 20 uM; assay type: ADME, Microsome
[20] = Half life in human liver microsomes; assay type: ADME, Microsome

| EC50 [1] [nM] | IC50 [2] [nM] | IC50 [3] [nM] | SMILES | Activity (Mus musculus) [%] | EC50 [5] [nM] | EC50 (Huh-7 [6]) [nM] | EC50 [8] [nM] | Efficacy (Huh-7 [11]) [%] | Efficacy (THP-1 [12]) [%] | EC50 (THP-1 [13]) [nM] | EC50 [14] [nM] | other results |
| --- | --- | --- | --- | --- | --- | --- | --- | --- | --- | --- | --- | --- |
| 410 | 100 | 12 | O=C(O)Cc1cccc(OCCCN(Cc2cccc(C(F)(F)F)c2Cl)CC(c2ccccc2)c2ccccc2)c1 | 27 |  |  |  |  |  |  |  |  |
| 296 | > 1000 | > 1000 | COC(=O)c1ccc(COc2cccc(-c3c(C(=O)c4ccccc4)cnc4c(C(F)(F)F)cccc34)c2)cc1 |  |  |  |  |  |  |  |  |  |
|  |  |  | O=C(O)Cc1ccc(COc2cccc(-c3c(C(=O)c4ccccc4)cnc4c(C(F)(F)F)cccc34)c2)cc1 |  |  |  |  |  |  |  |  | half-life at 20 µM [19]: 3.5 min |
|  |  |  | O=C(O)Cc1ccc(COc2cccc(-c3c(Cc4ccccc4)cnc4c(C(F)(F)F)cccc34)c2)cc1 |  | 680 | 45 | 627 | 106 | 172 | 55 | 1310 | half-life [20]: 107 min |

| SMILES | EC50 [1] [nM] | IC50 [2] [nM] | IC50 [3] [nM] | Activity (Mus musculus) [%] | EC50 [5] [nM] | EC50 (Huh-7 [6]) [nM] | EC50 [8] [nM] | Efficacy (Huh-7 [11]) [%] | Efficacy (THP-1 [12]) [%] | EC50 (THP-1 [13]) [nM] | EC50 [14] [nM] | other results |
| --- | --- | --- | --- | --- | --- | --- | --- | --- | --- | --- | --- | --- |
| O=C(O)Cc1ccc(CNc2cccc(-c3c(Cc4ccccc4)cnc4c(C(F)(F)F)cccc34)c2)cc1 | 33 | 7.6 |  | 45 | 320 | 15 | 1320 | 73 | 151 | 33 | 1300 | EC50 [4]: 87 nM; Cmax [7]: 3740 ng/mL; AUC(0-inf) [9]: 4440 ng·h/mL; EC50 [10]: 160 nM; EC50 (THP-1 [15]): 37 nM; bioavailability [16]: 67%; Tmax [17]: 30 min; half-life [18]: 78 min |

Source: ChEMBL document CHEMBL1137409, “Discovery of phenyl acetic acid substituted quinolines as novel liver X receptor agonists for the treatment of atherosclerosis” (J Med Chem, 2006)
